Patent US20170239212A1, “[…] AND USE THEREOF AS ANTIVIRAL AGENTS” (priority 2014, published 2017)

Tests used:
[1] = test system: LNCaP human prostate cancer cells; assay: Proliferation and morphology of LNCaP cells (Incucyte confluency imaging); type: cell-based; conditions: for Persistence of early morphological change (cell flattening) in LNCaP cells: Incucyte images, 0-9 hrs after treatment
Experimental: (§1) FIGS. 12A-12D show the effect of different compounds on the proliferation and apoptosis of LNCaP cells. […] Time-elapsed images were taken with an Incucyte imaging system every hour for 4 days. The proliferation of LNCaP cells is presented as increase in confluency (read by the instrument) at 80 hrs. Data represent the means±SEM of three independent experiments. […] Apoptosis was measured 2 days after treatment by flow cytometry using 7-AAD and Yo-Pro-1 as described in Materials and Methods. Data represent the means±SEM of three independent experiments.
FIGS. 13A and 13B show the proliferation and morphology of LNCaP cells detected by Incucyte. LNCaP cells were treated with DMSO as control, 300 nM PMA, 1000 nM bryostatin 1 or the bryologue MERLE 21, or with 300 nM PMA in combination with 1000 nM bryostatin 1 or the bryologue MERLE 21. Time-elapsed images were taken by the Incucyte imaging system every hour. […] The arrow indicates the time of treatment. Data are representative of three independent experiments.
The extent of confluency of LNCaP cells (from ATCC, Manassas, Va.) and the morphological changes after treatment were followed in real time using Incucyte (Essen Instruments, Ann Arbor, Mich.). Images of LNCaP cells plated into 24 well plates were taken every 1 hour by the instrument before and after treatment for a total of 4 days. The confluency of the cells was calculated by the instrument's program. The proliferation of LNCaP cells was expressed as the difference in cell confluency before and after treatment.

[2] = test system: LNCaP human prostate cancer cells; assay: Apoptosis of LNCaP cells (flow cytometry, Yo-Pro-1/7-AAD); type: cell-based; conditions: 48 hr; for Induction of apoptosis in LNCaP cells: compound alone
Experimental: as §1
(§2) LNCaP cells treated for 48 hours with the different drugs or with DMSO as control were washed and re-suspended in phosphate buffered saline. Yo-Pro-1 (Invitrogen, Carlsbad, Calif.) was added to a final concentration of 1 μM and the cells were incubated for 20 min at 4° C. in the dark. 7-Aminoactinomycin D (7-AAD) (Invitrogen, Carlsbad, Calif.) was then added at a 5 μg/mL final concentration 10 minutes before analysis by flow cytometry using the FACSCalibur system (Becton Dickinson, Mountain View, Calif.). Data were analyzed with FlowJo 7 (Tree Star Inc., Ashland, Oreg.). The Yo-Pro-1 positive cells were considered apoptotic and were expressed as % of total cells. Western blot analysis of treated LNCaP cell lysates was performed as described previously using rabbit anti-cFos, rabbit anti-PKC delta, rabbit anti-phospho-tyrosine 311 of PKC delta or rabbit anti-3-actin antibodies.

[3] = test system: cFos; assay: Induction of cFos in LNCaP cells (western blot); type: cell-based, human; conditions: 2, 5 or 8 hrs treatment
Experimental: (§3) FIGS. 14A-14C show the induction of cFos and phosphorylation of PKC6 at Y311 in LNCaP cells. […] The proteins from the lysates were separated by 10% SDS-PAGE, electroblotted to nitrocellulose membranes and probed with anti-cFos primary and anti-rabbit secondary antibodies, followed by ECL visualization. Data are representative of four independent experiments. […] The cFos signal was normalized to the 3-actin signal to correct for loading and the response induced by 100 nM PMA at 2 hrs was taken as 100%. Data represent the means±SEM of four independent experiments. […] Data represent the means±SEM of three independent experiments.
as §2, with “Western blot analysis of treated LNCaP cell lysates was performed as described previously using rabbit anti-cFos, rabbit anti-PKC delta, rabbit anti-phospho-tyrosine 311 of PKC delta or rabbit anti-3-actin antibodies.” left out

[4] = test system: PKC delta; assay: Phosphorylation of PKC delta at Y311 in LNCaP cells (western blot); type: cell-based, human; conditions: 2, 5 or 8 hrs treatment
Experimental: as §3
as §2, with “Western blot analysis of treated LNCaP cell lysates was performed as described previously using rabbit anti-cFos, rabbit anti-PKC delta, rabbit anti-phospho-tyrosine 311 of PKC delta or rabbit anti-3-actin antibodies.” left out

[5] = test system: U937 cells; assay: Attachment of U937 cells; type: cell-based, human; conditions: 72 hours; for Block of PMA-induced attachment of U937 cells: 10 nM PMA with different concentrations of compound; for Attachment of U937 cells (attached cells as percent of total): compound alone
Experimental: U937 cells (Sundstrom, C.; Nilsson, K.: Establishment and characterization of a human histiocytic lymphoma cell line (U-937). Int. J. Cancer 1976, 17: 565-577), purchased from ATCC (Manassas, Va.) and cultured in RPMI-1640 medium supplemented with 10% FBS (ATCC, Manassas, Va.), were plated in 35 mm dishes at a density of 2×10^5 living cells/ml and treated with different concentrations of the drugs or DMSO. After 72 hours, the number of cells in the supernatant (non-attached cells) and the number of attached cells (after trypsinization) were counted using a Beckman particle counter (Beckman Coulter Inc., Fullerton, Calif.). The number of attached cells is expressed as percent of total cells (FIGS. 8-10).
(§4) U937 cells were treated with PMA (0.1-100 nM), bryostatin 1 (1-1000 nM), the indicated compound (1-1000 nM), 10 nM PMA with different concentrations of bryostatin 1 (1-1000 nM) or 10 nM PMA with different concentrations of indicated compound (1-1000 nM) for 72 hours. The number of attached cells and total cells were counted and the attached cells were graphed as percent of total cells. The bars and error bars represent the average and the standard error of the mean of five independent experiment (FIGS. 8-10).
(§5) U937 cells (Sundstrom and Nilsson, 1976), purchased from ATCC (Manassas, Va.) and cultured in RPMI-1640 medium supplemented with 10% FBS (ATCC, Manassas, Va.), were plated in 35 mm dishes at a density of 1×10^5 living cells/ml and treated with different concentrations of the drugs or DMSO. After 72 hours, the number of cells in the supernatant (non-attached cells) and the number of attached cells (after trypsinization) were counted using a particle counter. The number of attached cells is expressed as percent of total cells.
U937 cells were treated with PMA (0.01-100 nM), bryostatin 1 (0.1-1000 nM), analogue 12 (MERLE 28) (0.1-1000 nM), 10 nM PMA with different concentrations of bryostatin 1 (0.1-1000 nM) or 10 nM PMA with different concentrations of analogue 12 (0.1-1000 nM). The number of attached cells and total cells were counted and the attached cells were graphed as percent of total cells. The bars and error bars represent the average and the standard error of the mean of at least three independent experiments.
as §5
as §4, with “at least three” for “five”, “experiments.” for “experiment (FIGS. 8-10).”

SMILES	Block of PMA inhibition of LNCaP cell growth ([1]; 300 nM PMA combined with 1000 nM compound, 80 hrs)	Persistence of early morphological change (cell flattening) in LNCaP cells [1]	Effect on LNCaP cell growth ([1]; compound alone, confluency at 80 hrs)	Block of PMA-induced apoptosis in LNCaP cells ([2]; 300 nM PMA combined with 1000 nM compound)	Induction of apoptosis in LNCaP cells [2]	Time course of cFos induction in LNCaP cells [3]	Phosphorylation of PKC delta at Y311 in LNCaP cells [4]	Block of PMA-induced attachment of U937 cells [5]	Block of PMA-induced attachment of U937 cells ([5]; listed as bryostatin 1)	Attachment of U937 cells (attached cells as percent of total) [5]	Attachment of U937 cells (attached cells as percent of total) ([5]; listed as bryostatin 1)
CCC/C=C/C=C/C(=O)O[C@H]1/C(=C/C(=O)OC)C[C@H]2C[C@H]([C@@H](C)O)OC(=O)C[C@H](O)C[C@@H]3C[C@H](OC(C)=O)C(C)(C)[C@](O)(C[C@@H]4C/C(=C/C(=O)OC)C[C@H](/C=C/C(C)(C)[C@]1(O)O2)O4)O3 [Bryostatin 1]	blocked the inhibition of LNCaP cell growth by PMA	had reversed by 6 hrs after treatment	induced a low level of inhibition of cell growth	largely blocked the induction of apoptosis by PMA	had little effect	largely lost by 5 hrs	only very weak phosphorylation	blocks the effect of the phorbol ester	blocks the effect of the phorbol ester in a dose-dependent manner	has much less effect on either response	much diminished effect
CCCCCCCCCCCCCC(=O)O[C@@H]1[C@@H](C)[C@@]2(O)[C@@H](C=C(CO)C[C@]3(O)C(=O)C(C)=C[C@@H]23)[C@@H]2C(C)(C)[C@]12OC(C)=O [PMA, phorbol 12-myristate 13-acetate]	–	still evident at 6 hrs but reversing by 9 hrs	–	–	induced apoptosis	persisted for 5 hrs, with weak induction still evident at 8 hrs	rapid phosphorylation	–	–	induces attachment	–
